Results from patent US20180099937A1, “NOVEL ARYL-CYANOGUANIDINE COMPOUNDS” (Bayer Pharma Aktiengesellschaft, priority 2015, published 2018).

What follows are compounds tested against SMYD2 (Homo sapiens, UniProt Q9NRG4) (assay: Scintillation Proximity Assay (SPA) for detection of SMYD2 enzymatic inhibition). Details: SMYD2 full length enzyme, p53 Peptide substrate 1.0 μM, 3H-SAM 60 nM; read-out: IC50 [mol/l] (SPA Assay).
SMYD2, sequence (Q9NRG4 whole entry): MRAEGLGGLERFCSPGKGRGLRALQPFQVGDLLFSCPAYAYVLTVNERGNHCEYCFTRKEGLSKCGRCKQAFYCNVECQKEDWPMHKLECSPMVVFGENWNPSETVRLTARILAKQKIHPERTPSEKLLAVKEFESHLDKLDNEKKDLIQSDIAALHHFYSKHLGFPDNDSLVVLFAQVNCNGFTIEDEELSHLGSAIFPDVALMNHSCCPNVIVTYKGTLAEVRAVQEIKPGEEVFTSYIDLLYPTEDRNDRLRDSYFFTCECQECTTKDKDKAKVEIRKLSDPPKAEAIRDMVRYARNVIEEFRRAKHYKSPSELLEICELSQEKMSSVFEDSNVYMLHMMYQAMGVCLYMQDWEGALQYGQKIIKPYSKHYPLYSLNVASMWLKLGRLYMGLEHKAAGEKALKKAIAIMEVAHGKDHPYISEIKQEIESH
Assay type: biochemical
Set-up: The SMYD2 full length enzyme was produced in-house by expression (with an N-terminal 6× His tag) in E. coli; 6xHis (N); made in house; host or cells: E. coli
Excerpt: 1.1 Scintillation Proximity Assay (SPA) for Detection of SMYD2 Enzymatic Inhibition
SMYD2 inhibitory activities of the compounds described in the present invention were quantified using a scintillation proximity assay (SPA) which measures methylation by the enzyme of the synthetic, biotinylated peptide Btn-Ahx-[…]—Amid×TFA (Biosyntan) derived from p53 and referred to from here on as “p53 Peptide”. The SMYD2 full length enzyme was produced in-house by expression (with an N-terminal 6× His tag) in E. coli and purification by affinity chromatography on a Ni-NTA Sepharose column followed by a size exclusion chromatography step on a Superdex 200 16/60 column (GE Healthcare).
In a typical assay 11 different concentrations of each compound (0.1 nM, 0.33 nM, 1.1 nM, 3.8 nM, 13 nM, 44 nM, 0.15 μM, 0.51 μM, 1.7 μM, 5.9 μM and 20 μM) were tested in duplicate within the same microtiter plate. To this end, 100-fold concentrated compound solutions (in DMSO) were previously prepared by serial dilution (1:3.4) of 2 mM stocks in a clear low volume 384-well source microliter plate (Greiner Bio-One), from which 50 nl of compound solutions were transferred into a white low volume test microtiter plate from the same supplier. Subsequently, 2.5 μl SMYD2 in aqueous assay buffer [50 mM Tris/HCl pH 9.0 (AppliChem), 1 mM dithiothreitol (DTT, Sigma), 0.01% (w/v) bovine serum albumine (BSA, Sigma), 0.0022% (v/v) Pluronic (Sigma)] were added to the compounds in the test plate to a final enzyme concentration of —typically—3 nM (this parameter was adjusted depending on the activity of the enzyme lot in order to be within the linear dynamic range of the assay). The samples were then incubated for 15 min at 22° C. to allow pre-equilibration of the putative enzyme-inhibitor complexes before the start of the methylation reaction, which was initiated by the addition of 2.5 μl 2-fold concentrated solution (in assay buffer) of titriated S-Adenosyl-L-Methionine (3H-SAM, Perkin Elmer, final concentration: 60 nM) and p53 Peptide substrate (final concentration: 1.0 μM). The resulting mixture (5 μl final volume) was shortly centrifuged (2 min., 1500 rpm) and incubated at 22° C. during 30 min. Thereupon the reaction was stopped by adding 3 μl of Streptavidin PS SPA imaging beads (Perkin Elmer, final concentration of 3.12 μg/μl) and “cold” SAM (AK Scientific, 25 μM final concentration) for non-specific binding reduction. Plates containing the stopped reaction were sealed with transparent adhesive foil (Perkin Elmer), centrifuged (2 min., 1500 rpm), and further incubated for —at least—1 h at RT (or overnight at 4° C.) in order to allow the SPA signals to develop. Subsequently, the amount of product was evaluated by measuring the energy transfer from the β-particles emitted by the 3H-labeled substrate to the Europium scintillator co-polymerized in the polystyrene matrix of the PS imaging beads, using the standard settings for this purpose of a Viewlux (Perkin-Elmer) CCD plate imaging device (emission filter 613/55 (IFP). The resulting scintillation counts were taken as indicator for the amount of methylated peptide per well. The data were normalised using two sets of control wells (typically 16 each) for high−(=enzyme reaction with DMSO instead of test compound=0% =Minimum inhibition) and low−(=all assay components without enzyme=100% =Maximum inhibition) SMYD2 activity. IC50 values were calculated by fitting the normalized inhibition data to a 4-parameter logistic equation using the “Screener” analysis software from Genedata.
With `CCN(C(=O)[C@H]1C[C@@H](F)CN1)C1CN(/C(=N\C#N)Nc2cccc(OC(F)F)c2)N=C1c1ccc(Cl)c(Cl)c1` (mixture of isomers) [Example 4, (4R)-N-[1-{N′-Cyano-N-[3-(difluoromethoxy)phenyl]carbamimidoyl}-3-(3,4-dichlorophenyl)-4,5-dihydro-1H-pyrazol-4-yl]-N-ethyl-4-fluoro-D-prolinamide] the IC50 was 0.0852 µM.
In the case of `CC1(C)CN[C@@H](C(=O)NC2CN(/C(=N\C#N)Nc3cccc(OC(F)F)c3)N=C2c2ccc(Cl)c(Cl)c2)C1` (mixture of isomers) [Example 7, N-[1-{N′-Cyano-N-[3-(difluoromethoxy)phenyl]carbamimidoyl}-3-(3,4-dichlorophenyl)-4,5-dihydro-1H-pyrazol-1-yl]-4,4-dimethyl-D-prolinamide], the IC50 is reported as 0.49 µM.
For `CCN(C(=O)[C@H]1C[C@@H](O)CN1)C1CN(/C(=N\C#N)Nc2cccc(OC(F)F)c2F)N=C1c1ccc(Cl)c(Cl)c1` (mixture of isomers) [Example 14, (4R)-N-[1-{N′-Cyano-N-[3-(difluoromethoxy)-2-fluorophenyl]carbamimidoyl}-3-(3,4-dichlorophenyl)-4,5-dihydro-1H-pyrazol-4-yl]-N-ethyl-4-hydroxy-D-prolinamide], the IC50 was 0.0798 µM.
`CCN(C(=O)[C@H]1CCCN1)C1CN(/C(=N\C#N)Nc2ccc(F)c(OC(F)F)c2)N=C1c1ccc(Cl)c(Cl)c1` (mixture of isomers) [Example 15, N-[1-{N′-Cyano-N-[3-(difluoromethoxy)-4-fluorophenyl]carbamimidoyl}-3-(3,4-dichlorophenyl)-4,5-dihydro-1H-pyrazol-4-yl]-N-ethyl-D-prolinamide] showed an IC50 of 0.0244 µM.
Compound `CCN(C(=O)[C@H]1C[C@@H](O)CN1)C1CN(/C(=N\C#N)Nc2ccc(F)c(OC(F)F)c2)N=C1c1ccc(Cl)c(Cl)c1` (mixture of isomers) [Example 16, (4R)-N-[1-{N′-Cyano-N-[3-(difluoromethoxy)-4-fluorophenyl]carbamimidoyl}-3-(3,4-dichlorophenyl)-4,5-dihydro-1H-pyrazol-4-yl]-N-ethyl-4-hydroxy-D-prolinamide] has an IC50 of 0.111 µM.
`CCN(C(=O)[C@H]1CCCN1)C1CN(/C(=N\C#N)Nc2cccc(OC(F)(F)F)c2)N=C1c1ccc(Cl)c(Cl)c1` (mixture of isomers) [Example 17, N-[1-{N′-Cyano-N-[3-(trifluoromethoxy)phenyl]carbamimidoyl}-3-(3,4-dichlorophenyl)-4,5-dihydro-1H-pyrazol-4-yl]-N-ethyl-D-prolinamide] gave an IC50 of 0.116 µM.
With `CCN(C(=O)[C@H]1CCCN1)C1CN(/C(=N\C#N)Nc2cc(OC(F)(F)F)ccc2OC)N=C1c1ccc(Cl)c(Cl)c1` (mixture of isomers) [Example 19, N-[1-{N′-Cyano-N-[2-methoxy-5-(trifluoromethoxy)phenyl]carbamimidayl}-3-(3,4-dichlorophenyl)-4,5-dihydro-1H-pyrazol-4-yl]-N-ethyl-D-prolinamide] the IC50 was 0.0172 µM.
Compound `CCN(C(=O)[C@H]1C[C@@H](O)CN1)C1CN(/C(=N\C#N)Nc2cc(OC(F)(F)F)ccc2OC)N=C1c1ccc(Cl)c(Cl)c1` (mixture of isomers) [Example 20, (4R)-N-[1-{N′-Cyano-N-[2-methoxy-5-(trifluoromethoxy)phenyl]carbamimidayl}-3-(3,4-dichlorophenyl)-4,5-dihydro-1H-pyrazol-4-yl]-N-ethyl-1-hydroxy-D-prolinamide] has an IC50 of 0.0224 µM.
Compound `CCN(C(=O)[C@H]1CCCN1)C1CN(/C(=N\C#N)Nc2cccc(OC(F)(F)F)c2F)N=C1c1ccc(Cl)c(Cl)c1` (mixture of isomers) [Example 21, N-[1-{N′-Cyano-N-[2-fluoro-3-(trifluoromethoxy)phenyl]carbamimidoyl}-3-(3,4-dichlorophenyl)-4,5-dihydro-1H-pyrazol-4-yl]-N-ethyl-D-prolinamide] has an IC50 of 0.0505 µM.
Work on `CCN(C(=O)[C@H]1CCCN1)C1CN(/C(=N\C#N)Nc2ccc(F)c(OC(F)(F)F)c2)N=C1c1ccc(Cl)c(Cl)c1` (mixture of isomers) [Example 22, N-[1-{N′-Cyano-N-[4-fluoro-3-(trifluoromethoxy)phenyl]carbamimidoyl}-3-(3,4-dichlorophenyl)-4,5-dihydro-1H-pyrazol-4-yl]-N-ethyl-D-prolinamide] yielded an IC50 of 0.0506 µM.
Work on `CCN(C(=O)[C@H]1CCN1)C1CN(/C(=N\C#N)Nc2cc(F)cc(OC(F)(F)F)c2)N=C1c1ccc(Cl)c(Cl)c1` (mixture of isomers) [Example 23, (2R)-N-[1-{N′-Cyano-N-[3-fluoro-5-(trifluoromethoxy)phenyl]carbamimidoyl}-3-(3,4-dichlorophenyl)-4,5-dihydro-1H-pyrazol-4-yl]-N-ethylazetidine-2-carboxamide] yielded an IC50 of 0.0432 µM.
Work on `CCN(C(=O)[C@H]1CCCN1)C1CN(/C(=N\C#N)Nc2cc(F)cc(OC(F)(F)F)c2)N=C1c1ccc(Cl)c(Cl)c1` (mixture of isomers) [Example 24, N-[1-{N′-Cyano-N-[3-fluoro-5-(trifluoromethoxy)phenyl]carbamimidoyl}-3-(3,4-dichlorophenyl)-4,5-dihydro-1H-pyrazol-4-yl]-N-ethyl-D-prolinamide] yielded an IC50 of 0.0651 µM.
`CCN(C(=O)[C@H]1CCCN1)C1CN(/C(=N\C#N)Nc2cc(OC(F)(F)F)ccc2F)N=C1c1ccc(Cl)c(Cl)c1` (mixture of isomers) [Example 26, N-[1-{N′-Cyano-N-[2-fluoro-5-(trifluoromethoxy)phenyl]carbamimidoyl}-3-(3,4-dichlorophenyl)-4,5-dihydro-1H-pyrazol-4-yl]-N-ethyl-D-prolinamide] was tested, and the IC50 was 0.0613 µM.
`CCN(C(=O)[C@H]1CCCN1)C1CN(/C(=N\C#N)Nc2cc(C(F)(F)F)ccc2OC)N=C1c1ccc(Cl)c(Cl)c1` (mixture of isomers) [Example 27, N-[1-{N′-Cyano-N-[2-methoxy-5-(trifluoromethyl)phenyl]carbamimidoyl}-3-(3,4-dichlorophenyl)-4,5-dihydro-1H-pyrazol-4-yl]-N-ethyl-D-prolinamide] gave an IC50 of 0.00454 µM.
In the case of `CCN(C(=O)[C@H]1C[C@@H](O)CN1)C1CN(/C(=N\C#N)Nc2cc(C(F)(F)F)ccc2OC(F)(F)F)N=C1c1ccc(Cl)c(Cl)c1` (mixture of isomers) [Example 29, (4R)-N-[1-{N′-Cyano-N-[2-(trifluoromethoxy)-5-(trifluoromethyl)phenyl]carbamimidoyl}-3-(3,4-dichlorophenyl)-4,5-dihydro-1H-pyrazol-4-yl]-N-ethyl-4-hydroxy-D-prolinamide], the IC50 is reported as 0.221 µM.
`CCN(C(=O)[C@H]1CCCN1)C1CN(/C(=N\C#N)Nc2cc(C(F)(F)F)ccc2OC(F)(F)F)N=C1c1ccc(Cl)c(Cl)c1` (mixture of isomers) [Example 30, N-[1-{N′-Cyano-N-[2-(trifluoromethoxy)-5-(trifluoromethyl)phenyl]carbamimidoyl}-3-(3,4-dichlorophenyl)-4,5-dihydro-1H-pyrazol-4-yl]-N-ethyl-D-prolinamide] showed an IC50 of 0.0966 µM.
Compound `CCN(C(=O)[C@H]1CCCN1)C1CN(/C(=N\C#N)Nc2cccc(CC(F)(F)F)c2)N=C1c1ccc(Cl)c(Cl)c1` (mixture of isomers) [Example 31, N-[1-{N′-Cyano-N-[3-(2,2,2-trifluorelethyl)phenyl]carbamimidayl}-3-(3,4-dichlorophenyl)-4,5-dihydro-1H-pyrazol-4-yl]-N-ethyl-D-prolinamide] has an IC50 of 0.0237 µM.
`CCN(C(=O)[C@H]1CCCN1)C1CN(/C(=N\C#N)Nc2ccc(F)c(OC)c2)N=C1c1ccc(Cl)c(Cl)c1` (mixture of isomers) [Example 33, N-{1-[N′-Cyano-N-(4-fluoro-3-methoxyphenyl)carbamimidoyl]-3-(3,4-dichlorophenyl)-4,5-dihydro-1H-pyrazol-4-yl}-N-ethyl-D-prolinamide] gave an IC50 of 0.103 µM.
